We go through 7 molecules from patent US6495683B2, “4-oxo-4,7-dihydro-thieno[2,3-b]pyridine-5-carboxamides as antiviral agents” (Pharmacia and Upjohn Company, priority 1999, dated 2002).

Data set [1] concerns the target HSV polymerase (Human herpesvirus 1, UniProt P04293). The data set is described as follows: biochemical.
Data set [2] has as its target VZV polymerase (Varicella-zoster virus, UniProt P09252). The data set is described as follows: biochemical.
Data set [3] has as its target T1, HCMV polymerase (Human cytomegalovirus, UniProt P08546).
T1 construct: made in house; host or cells: recombinant baculovirus-infected SF-9 cells
The data set is described as follows: biochemical. As to conditions: modified SPA assay: compounds diluted in 100% DMSO, 4.5 mM DTT in polymerase buffer; read-out: polymerase IC50 (μM) HCMV. The method, then: The HCMV polymerase assay is performed using a scintillation proximity assay (SPA) as described in several references, such as N. D. Cook, et al., Pharmaceutical Manufacturing International, pages 49-53 (1992); K. Takeuchi, Laboratory Practice, September issue (1992); U.S. Pat. No. 4,568,649 (1986); which are incorporated by reference herein. Reactions are performed in 96-well plates. The assay is conducted in 100 μl volume with 5.4 mM HEPE (pH 7.5), 11.7 mM KCl, 4.5 mM MgCl2, 0.36 mg/ml BSA, and 90 nM ^3H-dTTP. Assays are run with and without CHAPS, (3-[(3-cholamidopropyl)-dimethylammonio]-1-propane-sulfonate) at a final concentration of 2 mM. HCMV polymerase is diluted in enzyme dilution buffer containing 50% glycerol, 250 mM NaCl, 10 mM HEPES (pH 7.5), 100 μg/ml BSA, and 0.01% sodium azide. The HCMV polymerase, which is expressed in recombinant baculovirus-infected SF-9 cells and purified according to literature procedures, is added at 10% (or 10 μl) of the final reaction volume, i.e., 100 μl. Compounds are diluted in 50% DMSO and 10 μl are added to each well. Control wells contain an equivalent concentration of DMSO. Unless noted otherwise, reactions are initiated via the addition of 6 nM biotinylated poly(dA)-oligo(dT) template/primer to reaction mixtures containing the enzyme, substrate, and compounds of interest. Plates are incubated in a 25 C or 37 C H2O bath and terminated via the addition of 40 μl/reaction of 0.5 M EDTA (pH 8) per well. Reactions are terminated within the time-frame during which substrate incorporation is linear and varied depending upon the enzyme and conditions used, i.e., 30 min. for HCMV polymerase. Ten μl of streptavidin-SPA beads (20 mg/ml in PBS/10% glycerol) are added following termination of the reaction. Plates are incubated 10 min. at 37 ° C., then equilibrated to room temperature, and counted on a Packard Topcount. Linear regressions are performed and IC50's are calculated using computer software.
A modified version of the above HCMV polymerase assay is performed as described above, but with the following changes: Compounds are diluted in 100% DMSO until final dilution into assay buffer. In the previous assay, compounds are diluted in 50% DMSO. 4.5 mM dithiothreotol (DTT) is added to the polymerase buffer.

Setting [4] is: read-out: polymerase IC50 (μM) HSV.
Where [5] appears, read: read-out: polymerase IC50 (μM) VZV.

The structures appear in SMILES notation. Where a name gives a salt, the structure may show the parent alone. Read-outs that look alike come from different tables or passages of the source.

Sequence of HSV polymerase (P04293 whole entry): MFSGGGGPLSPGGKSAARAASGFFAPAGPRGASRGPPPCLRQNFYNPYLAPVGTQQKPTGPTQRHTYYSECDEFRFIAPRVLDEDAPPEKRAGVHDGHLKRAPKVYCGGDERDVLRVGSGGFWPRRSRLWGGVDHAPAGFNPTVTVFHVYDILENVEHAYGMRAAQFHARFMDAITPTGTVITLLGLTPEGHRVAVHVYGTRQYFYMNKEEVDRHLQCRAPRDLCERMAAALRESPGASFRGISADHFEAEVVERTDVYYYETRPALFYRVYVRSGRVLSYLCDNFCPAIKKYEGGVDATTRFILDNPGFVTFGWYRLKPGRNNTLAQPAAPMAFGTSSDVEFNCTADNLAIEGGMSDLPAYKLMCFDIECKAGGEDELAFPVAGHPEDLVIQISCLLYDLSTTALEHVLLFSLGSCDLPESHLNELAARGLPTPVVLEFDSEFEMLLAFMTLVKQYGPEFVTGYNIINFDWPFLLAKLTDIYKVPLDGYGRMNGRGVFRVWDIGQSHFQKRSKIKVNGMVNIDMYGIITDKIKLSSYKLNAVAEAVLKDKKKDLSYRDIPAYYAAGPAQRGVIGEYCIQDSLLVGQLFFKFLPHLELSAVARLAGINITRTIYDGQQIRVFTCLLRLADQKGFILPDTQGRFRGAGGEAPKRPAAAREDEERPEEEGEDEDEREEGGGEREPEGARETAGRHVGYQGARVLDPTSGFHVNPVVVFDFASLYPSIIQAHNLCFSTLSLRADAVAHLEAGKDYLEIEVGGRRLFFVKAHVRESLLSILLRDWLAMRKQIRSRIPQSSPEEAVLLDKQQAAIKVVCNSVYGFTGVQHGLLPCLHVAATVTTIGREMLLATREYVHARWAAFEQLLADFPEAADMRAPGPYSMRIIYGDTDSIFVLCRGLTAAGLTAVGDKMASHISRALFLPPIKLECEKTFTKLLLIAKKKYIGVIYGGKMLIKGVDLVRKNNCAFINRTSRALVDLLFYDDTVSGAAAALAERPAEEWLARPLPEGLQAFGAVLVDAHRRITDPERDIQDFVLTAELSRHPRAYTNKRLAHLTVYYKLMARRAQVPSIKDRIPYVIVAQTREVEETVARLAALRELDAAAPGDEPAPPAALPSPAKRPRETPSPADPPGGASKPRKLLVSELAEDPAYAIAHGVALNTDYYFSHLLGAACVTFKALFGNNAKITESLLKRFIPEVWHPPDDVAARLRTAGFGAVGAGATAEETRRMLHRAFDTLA
T1 sequence (P08546 whole entry): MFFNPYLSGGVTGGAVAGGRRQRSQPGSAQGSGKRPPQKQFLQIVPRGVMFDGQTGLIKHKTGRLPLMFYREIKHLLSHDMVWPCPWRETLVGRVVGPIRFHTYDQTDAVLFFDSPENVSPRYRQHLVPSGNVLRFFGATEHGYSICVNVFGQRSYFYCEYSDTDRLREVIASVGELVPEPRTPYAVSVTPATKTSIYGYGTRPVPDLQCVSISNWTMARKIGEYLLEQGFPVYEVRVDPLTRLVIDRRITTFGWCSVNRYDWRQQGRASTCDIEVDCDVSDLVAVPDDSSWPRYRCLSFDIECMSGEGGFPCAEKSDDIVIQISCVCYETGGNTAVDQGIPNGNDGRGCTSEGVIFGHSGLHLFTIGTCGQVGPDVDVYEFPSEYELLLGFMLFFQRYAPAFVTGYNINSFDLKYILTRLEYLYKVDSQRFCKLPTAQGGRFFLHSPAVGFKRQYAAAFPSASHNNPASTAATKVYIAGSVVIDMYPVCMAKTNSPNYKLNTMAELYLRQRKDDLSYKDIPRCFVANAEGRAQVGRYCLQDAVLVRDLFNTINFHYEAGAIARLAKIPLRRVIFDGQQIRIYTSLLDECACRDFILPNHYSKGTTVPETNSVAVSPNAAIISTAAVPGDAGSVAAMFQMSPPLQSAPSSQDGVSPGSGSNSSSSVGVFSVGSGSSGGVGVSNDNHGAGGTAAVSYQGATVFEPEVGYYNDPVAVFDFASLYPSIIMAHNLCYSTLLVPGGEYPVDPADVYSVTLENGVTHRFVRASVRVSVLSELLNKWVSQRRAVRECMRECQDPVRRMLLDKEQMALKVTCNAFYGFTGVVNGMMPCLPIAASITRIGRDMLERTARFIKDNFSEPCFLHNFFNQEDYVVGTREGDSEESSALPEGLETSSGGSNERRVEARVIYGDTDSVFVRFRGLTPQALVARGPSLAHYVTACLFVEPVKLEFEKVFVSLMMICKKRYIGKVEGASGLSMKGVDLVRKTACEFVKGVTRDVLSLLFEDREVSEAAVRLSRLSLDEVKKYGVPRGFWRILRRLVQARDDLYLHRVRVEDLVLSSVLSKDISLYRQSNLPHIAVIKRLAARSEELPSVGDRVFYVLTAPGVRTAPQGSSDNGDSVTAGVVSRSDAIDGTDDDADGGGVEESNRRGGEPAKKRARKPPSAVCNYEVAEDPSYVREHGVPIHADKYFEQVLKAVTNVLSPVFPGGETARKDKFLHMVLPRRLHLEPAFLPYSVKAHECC
Sequence of VZV polymerase (P09252 whole entry): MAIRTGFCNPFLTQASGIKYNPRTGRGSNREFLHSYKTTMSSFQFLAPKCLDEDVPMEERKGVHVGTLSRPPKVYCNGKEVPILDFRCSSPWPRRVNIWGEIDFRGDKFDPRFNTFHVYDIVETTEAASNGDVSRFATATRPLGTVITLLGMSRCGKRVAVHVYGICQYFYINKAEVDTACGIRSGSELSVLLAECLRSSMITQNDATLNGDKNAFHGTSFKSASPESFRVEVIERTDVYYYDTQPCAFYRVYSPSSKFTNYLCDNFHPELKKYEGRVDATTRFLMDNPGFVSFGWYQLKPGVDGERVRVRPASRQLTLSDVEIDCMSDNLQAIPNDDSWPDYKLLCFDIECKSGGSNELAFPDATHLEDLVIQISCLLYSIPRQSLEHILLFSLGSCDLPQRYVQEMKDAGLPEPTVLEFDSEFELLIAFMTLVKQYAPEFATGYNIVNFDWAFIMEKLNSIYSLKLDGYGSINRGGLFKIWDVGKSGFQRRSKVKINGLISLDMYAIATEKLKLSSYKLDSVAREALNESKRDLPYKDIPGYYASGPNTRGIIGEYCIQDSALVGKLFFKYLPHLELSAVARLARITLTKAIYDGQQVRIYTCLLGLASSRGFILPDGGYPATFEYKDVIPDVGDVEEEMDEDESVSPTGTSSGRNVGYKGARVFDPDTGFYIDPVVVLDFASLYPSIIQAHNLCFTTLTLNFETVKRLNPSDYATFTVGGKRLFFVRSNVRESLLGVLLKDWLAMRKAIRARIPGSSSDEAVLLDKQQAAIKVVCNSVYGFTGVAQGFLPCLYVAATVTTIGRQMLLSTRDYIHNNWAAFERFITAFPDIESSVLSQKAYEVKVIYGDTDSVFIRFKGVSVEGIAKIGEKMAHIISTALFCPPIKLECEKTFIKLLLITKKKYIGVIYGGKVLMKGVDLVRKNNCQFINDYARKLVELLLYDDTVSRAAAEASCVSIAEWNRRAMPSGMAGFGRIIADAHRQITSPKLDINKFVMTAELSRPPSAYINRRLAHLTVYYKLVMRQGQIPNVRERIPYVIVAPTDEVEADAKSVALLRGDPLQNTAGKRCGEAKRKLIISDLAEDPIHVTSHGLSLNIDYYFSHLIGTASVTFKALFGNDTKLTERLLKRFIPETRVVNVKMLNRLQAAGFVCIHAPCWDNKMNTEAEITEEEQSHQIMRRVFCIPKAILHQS

What is called IC50 is the concentration needed to halve the response being measured. One may read the melting point as the temperature of the solid-liquid transition. The molecule `O=C(NCc1ccc(Cl)cc1)c1cnc2sc(C#CCO)cc2c1O` [Example 5, N-(4-Chlorobenzyl)-4-hydroxy-2-(3-hydroxy-1-propynyl)thieno[2,3-b]pyridine-5-carboxamide] gave a melting point of 233 to 236 °C. In data set [1] (setting [4]), the IC50 was 0.88 µM. The IC50 in data set [2] (setting [5]) turned out to be 0.6 µM. Further, the IC50 in data set [3] was found to be 2.5 µM.

Take `O=C(NCc1ccc(Cl)cc1)c1cnc2sc(CCCO)cc2c1O` [Example 8, N-(4-Chlorobenzyl)4-hydroxy-2-(3-hydroxpropyl)thieno[2,3-b]pyridine-5-carboxamide]: the melting point was in the range of 185 to 186 °C. Besides, in data set [1] (setting [4]), the IC50 amounted to 0.91 µM. The IC50 in data set [2] (setting [5]) came to 0.55 µM. The IC50 in data set [3] is 2.2 µM.

With `CCn1cc(C(=O)NCc2ccc(Cl)cc2)c(=O)c2cc(C#CCCO)sc21` [Example 15, N-(4-Chlorobenzyl)-7-ethyl-2-(4-hydroxy-1-butynyl)-4-oxo-4,7-dihydrothieno[2,3-b]pyridine-5-carboxamide], the figures for the IC50 in data set [1] (setting [4]), in data set [2] (setting [5]) and in data set [3] were 3.2 µM, 1.9 µM and 4.7 µM, respectively.

As for `O=C(NCc1ccc(Cl)cc1)c1cn(CCO)c2sc(C#CCO)cc2c1=O` [Example 17, N-(4-Chlorobenzyl)-7-(2-hydroxyethyl)-2-(3-hydroxy-1-5 propynyl)-4-oxo-4,7-dihydrothieno[2,3-b]pyridine-5-carboxamide], the IC50 turned out to be 0.89 µM in data set [1] (setting [4]), 0.28 µM in data set [2] (setting [5]) and 0.92 µM in data set [3].

With `CCN(CC)CCn1cc(C(=O)NCc2ccc(Cl)cc2)c(=O)c2cc(C#CCO)sc21` [Example 18, N-(4-Chlorobenzyl)-7-[2-(diethylamino)ethyl]-2-(3hydroxy-1-propynyl)4-oxo4,7-dihydrothieno[2,3-b]pyridine-5-carboxamide hydrochloride], the IC50 in data set [1] (setting [4]) stood at 0.95 µM; in data set [2] (setting [5]), 0.39 µM; in data set [3], 1.7 µM.

`Cn1cc(C(=O)NCc2ccc(Cl)cc2)c(=O)c2cc(CCCO)sc21` [Example 25, N-(4-Chlorobenzyl)-2-(3-hydroxypropyl)-7-methyl4-oxo-4,7-7dihydrothieno[2,3-b]pyridine-5-carboxamide]: the IC50 in data set [1] (setting [4]) stood at 0.45 µM; in data set [2], 0.46 µM; in data set [3], 0.4 µM.

With `Cn1cc(C(=O)NCc2ccc(Cl)cc2)c(=O)c2cc(CN3CCOCC3)sc21` [Example 36, N-(4-Chlorobenzyl)-7-methyl-2-(4-morpholinylmethyl)-4-oxo-4,7-dihydrothieno[2,3-b]pyridine-5-carboxamide], the IC50 in data set [1] is 1.2 µM; in data set [2] (setting [5]), 0.77 µM; in data set [3] it was 1.8 µM.
